Test systems include MALME-3M melanoma; HCT-15 colon; CAKI-1 renal; SF-295 CNS; OVCAR-8 ovarian; A549 NSCLC; UACC-62 melanoma; KM12 colon; OVCAR-5 ovarian; DU-145 prostate; NCI/ADR-RES ovarian; UO-31 renal; K-562 leukemia; MOLT-4 leukemia; A498 renal; HOP-92 NSCLC; RXF 393 renal; HT29 colon; T-47D breast.
What all share (assay): NCI-60 cell line screen, 48 h

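Results reflect a 48-hour exposure of cells in 96-well plates to compound at five concentrations. TGI denotes the concentration required for complete inhibition of growth.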 A value given as a limit tells only on which side of the number the result lay.

`O=C(/C=C/c1cccc(Br)c1)N1CCN(CCOC(c2ccccc2)c2ccccc2)CC1`: the TGI in the assay with MALME-3M melanoma, in the assay with HCT-15 colon, in the assay with CAKI-1 renal, in the assay with SF-295 CNS, in the assay with OVCAR-8 ovarian and in the assay with A549 NSCLC was greater than 100 µM in each case. Further, the TGI with UACC-62 melanoma was greater than 100 µM; in the assay with KM12 colon, greater than 100 µM; in the assay on OVCAR-5 ovarian, greater than 100 µM; in the assay with DU-145 prostate, greater than 100 µM; with NCI/ADR-RES ovarian it was greater than 100 µM; in the assay on UO-31 renal, 65.8 µM. Also, the TGI in the assay with K-562 leukemia was 55 µM; in the assay on MOLT-4 leukemia it was 30.8 µM; with A498 renal, greater than 100 µM; with HOP-92 NSCLC, 99.1 µM; in the assay with RXF 393 renal, greater than 100 µM; in the assay on HT29 colon, 81.5 µM. Also, in the assay with T-47D breast, the TGI stood at 82.9 µM.

With `CC(C)CC1N=C(OCc2ccccc2)OC1=O` (stereo not given), the TGI in the assay on MALME-3M melanoma, with HCT-15 colon, with CAKI-1 renal, with SF-295 CNS, in the assay with OVCAR-8 ovarian and with A549 NSCLC was greater than 100 µM throughout. Besides, the TGI in the assay on KM12 colon, in the assay on OVCAR-5 ovarian, with DU-145 prostate, in the assay on NCI/ADR-RES ovarian, with UO-31 renal and in the assay on K-562 leukemia was greater than 100 µM each time. For the same molecule, the TGI with MOLT-4 leukemia, in the assay with A498 renal, in the assay with HOP-92 NSCLC, with RXF 393 renal, in the assay with HT29 colon and in the assay with T-47D breast was greater than 100 µM each time.

On to `Cn1c(=O)c2c(=O)cc(N)[nH]c2n(C)c1=O`, for which the TGI in the assay on MALME-3M melanoma was greater than 100 µM; in the assay on CAKI-1 renal, 76.8 µM; in the assay on SF-295 CNS, greater than 100 µM; in the assay on OVCAR-8 ovarian, greater than 100 µM; in the assay with A549 NSCLC, greater than 100 µM; in the assay on UACC-62 melanoma, greater than 100 µM. Further, the TGI with KM12 colon, in the assay on OVCAR-5 ovarian, with DU-145 prostate, with NCI/ADR-RES ovarian, in the assay with UO-31 renal and in the assay on K-562 leukemia was greater than 100 µM throughout. For the same molecule, the TGI in the assay with MOLT-4 leukemia, with A498 renal, in the assay with HOP-92 NSCLC, with RXF 393 renal, with HT29 colon and with T-47D breast was greater than 100 µM throughout.

Turning to `CN(C)NC1=NS(=O)(=O)c2cc3c(=O)n(C)[nH]c3cc2S1`, the TGI in the assay with MALME-3M melanoma, in the assay on HCT-15 colon, with CAKI-1 renal, with SF-295 CNS, in the assay on OVCAR-8 ovarian and in the assay on A549 NSCLC was greater than 10 µM throughout. Also, the TGI with KM12 colon, with OVCAR-5 ovarian, in the assay on DU-145 prostate, in the assay with NCI/ADR-RES ovarian, in the assay with UO-31 renal and in the assay on K-562 leukemia was greater than 10 µM each time. Also, the TGI in the assay on MOLT-4 leukemia, with A498 renal, in the assay with HOP-92 NSCLC, in the assay with RXF 393 renal, with HT29 colon and with T-47D breast was greater than 10 µM each time.

For the molecule `CN1CCc2c(sc3ncn(Nc4ccc(F)cc4)c(=N)c23)C1`, the TGI with MALME-3M melanoma, with HCT-15 colon, in the assay with CAKI-1 renal, in the assay with SF-295 CNS, with OVCAR-8 ovarian and in the assay with A549 NSCLC was greater than 100 µM each time. In addition, the TGI in the assay with UACC-62 melanoma, in the assay on KM12 colon, with OVCAR-5 ovarian, in the assay on DU-145 prostate, in the assay on NCI/ADR-RES ovarian and in the assay with K-562 leukemia was greater than 100 µM each time. In addition, the TGI with MOLT-4 leukemia, in the assay on A498 renal, in the assay with HOP-92 NSCLC, in the assay on RXF 393 renal, with HT29 colon and in the assay with T-47D breast was greater than 100 µM each time.

Consider `OC(Cc1cc(CC(O)(C(F)(F)F)C(F)(F)F)nc(CC(O)(C(F)(F)F)C(F)(F)F)c1)(C(F)(F)F)C(F)(F)F`, for which the TGI was 7.96 µM in the assay on MALME-3M melanoma; 3.95 µM with HCT-15 colon; 2.31 µM in the assay on CAKI-1 renal; 2.58 µM with SF-295 CNS; greater than 10 µM with OVCAR-8 ovarian; 9.69 µM in the assay with A549 NSCLC. For the same molecule, the TGI is 1.6 µM in the assay with UACC-62 melanoma; 2.42 µM in the assay on KM12 colon; greater than 10 µM in the assay on OVCAR-5 ovarian; 7.09 µM in the assay with DU-145 prostate; 6.32 µM with NCI/ADR-RES ovarian; greater than 10 µM in the assay with K-562 leukemia. Also, the TGI with MOLT-4 leukemia is greater than 10 µM; with A498 renal, 3.22 µM; with HOP-92 NSCLC it was 3.45 µM; in the assay on RXF 393 renal, 4.57 µM; in the assay with HT29 colon, 6.24 µM; in the assay with T-47D breast it was greater than 10 µM.

On to `O=C(Nc1ccc(Cl)cc1)c1cc(S(=O)(=O)N2CCNNC2=O)c(S)cc1Cl`, for which the TGI in the assay with MALME-3M melanoma, in the assay with HCT-15 colon, with CAKI-1 renal, in the assay on SF-295 CNS, in the assay on OVCAR-8 ovarian and with A549 NSCLC was greater than 100 µM in each case. Also, the TGI in the assay on UACC-62 melanoma, with KM12 colon, in the assay with OVCAR-5 ovarian, in the assay on DU-145 prostate, in the assay on NCI/ADR-RES ovarian and in the assay on UO-31 renal was greater than 100 µM throughout. Also, the TGI in the assay with K-562 leukemia is greater than 100 µM; in the assay with MOLT-4 leukemia it was greater than 100 µM; with A498 renal, greater than 100 µM; in the assay on HOP-92 NSCLC it was 96.1 µM; in the assay with RXF 393 renal it was 53.2 µM; in the assay on T-47D breast, greater than 100 µM.

With `COc1ccc(C=O)cc1OS(=O)(=O)C(F)(F)C(F)(F)C(F)(F)C(F)(F)F`, the TGI was greater than 69 µM in the assay on MALME-3M melanoma; greater than 100 µM in the assay with HCT-15 colon; greater than 100 µM with CAKI-1 renal; 53 µM with SF-295 CNS; greater than 100 µM in the assay on OVCAR-8 ovarian; greater than 100 µM with A549 NSCLC. In addition, the TGI was 50.7 µM with UACC-62 melanoma; greater than 74.4 µM in the assay on KM12 colon; greater than 100 µM in the assay with OVCAR-5 ovarian; greater than 100 µM with DU-145 prostate; 58.3 µM in the assay on NCI/ADR-RES ovarian; greater than 60.9 µM with UO-31 renal. In addition, the TGI in the assay on MOLT-4 leukemia is greater than 20 µM; in the assay on A498 renal, greater than 68.2 µM; in the assay on HOP-92 NSCLC it was 58.6 µM; in the assay on RXF 393 renal, 59.8 µM; with HT29 colon, greater than 90.5 µM; in the assay with T-47D breast, greater than 100 µM.

Source of the values: PubChem BioAssay (NCI).
